This note sets out measurements from PubChem BioAssay (NCI).

What all share (assay): NCI anticancer screen, dose series, 48 h
The subject of experiment [1] is SW-620 colon.
The subject of experiment [2] is OVCAR-8 ovarian.
The subject of experiment [3] is OVCAR-4 ovarian.
The test system of experiment [4] is CCRF-CEM leukemia.
Experiment [5] deals with NCI-H226 lung.
Experiment [6] has as its system RXF 393 renal.
The test system of experiment [7] is HCC-2998 colon.
Experiment [8] deals with SF-295 CNS.
Experiment [9] concerns U251 CNS.
Experiment [10] concerns HL-60(TB) leukemia.
Experiment [11] concerns SR leukemia.
Experiment [12] deals with SNB-75 CNS.
The test system of experiment [13] is HS 578T breast.
In experiment [14] the test system is IGROV1 ovarian.
For experiment [15], the system named is NCI-H23 lung.
In experiment [16] the test system is SF-539 CNS.
Experiment [17] concerns LOX IMVI melanoma.
Experiment [18] relates to OVCAR-5 ovarian.
Experiment [19] deals with M14 melanoma.

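Five concentrations, 48 hours, 96-well plates. At the TGI there is no net growth.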 Bounds are passed on as bounds.

In the case of `CCN(CC)C(=S)SC1C(=O)NC(=O)NC1=O`, the TGI in experiment [1], in experiment [2], in experiment [3], in [4], in [5] and in experiment [6] was more than 100 µM throughout. For the same compound, the TGI in experiment [7], in experiment [8], in [9], in experiment [10], in [11] and in experiment [12] was more than 100 µM throughout. Also, the TGI in experiment [13], in [14], in experiment [15], in [16], in experiment [17] and in experiment [18] was more than 100 µM each time.
Regarding `CCOC(=O)CCC(NC(=O)C(N)c1ccc([N+](=O)[O-])cc1)C(=O)NC(CCC(=O)OCC)C(=O)OCC` (stereo not drawn), the TGI in experiment [1], in experiment [2], in experiment [5], in experiment [7], in [9] and in [10] was more than 100 µM in each case. Further, the TGI in experiment [11], in experiment [12], in experiment [19], in experiment [13], in [14] and in [15] was more than 100 µM throughout. In experiment [18], this compound gave a TGI of more than 100 µM.
For the compound `CCOC(=O)N(C)C(=C(F)F)C(F)(F)F`, the TGI in [1] worked out at 67.9 µM; in experiment [2] it was 79.4 µM; in experiment [3] it was 90.8 µM; in experiment [4], 75.8 µM; in experiment [5], 58.3 µM; in [7], 37.7 µM. Further, the TGI was more than 100 µM in [8]; more than 100 µM in experiment [9]; 49.7 µM in experiment [10]; 20.9 µM in experiment [11]; 93.1 µM in experiment [12]; 46.5 µM in experiment [19]. In addition, the TGI in experiment [13] is more than 100 µM; in [14], 62.4 µM; in experiment [15], 69.8 µM; in experiment [16], 78.3 µM; in [17], 85.5 µM; in [18] it was more than 100 µM.
Consider `COc1cccc(C=C2N=C(c3ccccc3)N(n3c(-c4ccccc4)nc4ccccc4c3=O)C2=O)c1`, for which the TGI in experiment [1], in experiment [2], in [4], in [5], in [7] and in experiment [8] was more than 100 µM throughout. The TGI was 59.2 µM in [10]; more than 100 µM in [11]; more than 100 µM in [12]; more than 100 µM in [19]; more than 100 µM in experiment [13]; more than 100 µM in experiment [14]. Also, the TGI in experiment [15], in experiment [16] and in [17] was more than 100 µM throughout.
Consider `O=C1C2Cc3c(n(C(=O)c4ccccc4)c4ccccc34)CC2C(=O)N1c1ccc(Nc2ccc(N3C(=O)C4Cc5c(n(C(=O)c6ccccc6)c6ccccc56)CC4C3=O)cc2)cc1` (stereo not drawn), for which the TGI in experiment [2], in [3], in experiment [4], in [5], in experiment [6] and in experiment [7] was more than 100 µM in each case. Moreover, the TGI was more than 100 µM in experiment [8]; more than 100 µM in experiment [9]; 46.1 µM in [10]; more than 100 µM in [11]; more than 100 µM in experiment [12]; more than 100 µM in experiment [19]. For the same compound, the TGI in experiment [13], in [14], in [15], in experiment [17] and in experiment [18] was more than 100 µM throughout.
Regarding `Oc1cnc2c(O)cccc2c1`, the TGI is more than 100 µM in [1]; 80.5 µM in experiment [2]; 85.5 µM in experiment [5]; more than 100 µM in experiment [7]; more than 100 µM in experiment [8]; more than 100 µM in [9]. Besides, the TGI in [10] was more than 100 µM; in experiment [11], more than 100 µM; in experiment [12] it was 79.9 µM; in experiment [19], more than 100 µM; in [13] it was more than 100 µM; in [14] it was more than 100 µM. Besides, the results for the TGI in [16], in [17] and in [18] were 96.6 µM, more than 100 µM and more than 100 µM, respectively.
In the case of `N#Cc1ncn(CCO)c1N`, the TGI in experiment [1], in experiment [2], in [3], in experiment [4], in experiment [5] and in experiment [7] was more than 100 µM in each case. The TGI in experiment [8], in experiment [9], in experiment [10], in [11], in experiment [12] and in [19] was more than 100 µM in each case. Besides, the TGI in experiment [13], in experiment [14], in [15], in experiment [16], in [17] and in experiment [18] was more than 100 µM in each case.
Turning to `Cc1nc(C)c(N2CCN(C(=O)O)CC2)c(=O)[nH]1`, the TGI in experiment [1], in experiment [2], in experiment [3], in experiment [4], in [5] and in experiment [6] was more than 100 µM in each case. In addition, the TGI in experiment [7], in [8], in experiment [9], in [10], in experiment [11] and in experiment [19] was more than 100 µM throughout. The TGI in [13], in experiment [14], in experiment [15], in experiment [16] and in experiment [17] was more than 100 µM in each case.
`CC1(C)S[C@H](CN)N[C@H]1C(=O)OC(c1ccccc1)c1ccccc1`: the TGI was more than 100 µM in experiment [1]; more than 100 µM in experiment [2]; more than 100 µM in [3]; more than 100 µM in experiment [5]; more than 100 µM in experiment [6]; 36 µM in experiment [7]. For the same compound, the TGI is more than 100 µM in experiment [8]; more than 100 µM in experiment [9]; 35.7 µM in experiment [10]; 63.6 µM in experiment [11]; more than 100 µM in experiment [12]; more than 100 µM in experiment [19]. Also, the TGI in experiment [13] was more than 100 µM; in experiment [14], more than 100 µM; in experiment [15], more than 100 µM; in experiment [17] it was 33.8 µM; in experiment [18], more than 100 µM.
As for `CN=C(N)N=Nc1c(O)[nH]c2ccccc12`, the TGI in experiment [1], in experiment [2], in [3], in experiment [4], in [5] and in experiment [6] was more than 100 µM throughout. The TGI in experiment [7], in experiment [8], in experiment [9], in experiment [10], in experiment [11] and in experiment [12] was more than 100 µM in each case. Moreover, the TGI in [19], in experiment [13], in experiment [14], in experiment [15], in experiment [17] and in experiment [18] was more than 100 µM throughout.
With `CSC1=C(C(=O)Nc2ccc(C)cc2)C(N)=NC1=O`, the TGI in experiment [1], in experiment [2], in experiment [3], in experiment [4], in [5] and in experiment [6] was more than 100 µM in each case. Also, the TGI in experiment [7], in experiment [8], in experiment [9], in experiment [10], in experiment [11] and in [12] was more than 100 µM throughout. Besides, the TGI in [19], in experiment [13], in experiment [14], in experiment [15], in [16] and in experiment [17] was more than 100 µM in each case.
On to `NS(=O)(=O)c1nnc(NC(=O)c2cccc([N+](=O)[O-])c2)s1`, for which the TGI in experiment [1], in experiment [2], in experiment [3], in experiment [5], in experiment [6] and in [7] was more than 100 µM each time. Moreover, the TGI in experiment [8], in [9], in [10], in experiment [11], in experiment [19] and in experiment [13] was more than 100 µM throughout. Besides, the TGI in [15], in [16], in [17] and in experiment [18] was more than 100 µM throughout.
For `CCCCOCOc1ccccc1P1(=O)COc2ccccc2OC1`, the TGI in experiment [1], in experiment [3], in [4], in experiment [6], in experiment [7] and in [8] was more than 100 µM each time. The TGI in [9], in experiment [10], in experiment [11], in [12], in [19] and in [13] was more than 100 µM each time. Besides, the TGI in experiment [14], in [15], in experiment [16], in [17] and in experiment [18] was more than 100 µM throughout.
Regarding `CCc1[nH]c(=O)c2oc3cc4ccccc4cc3c2c1C(=O)O`, the TGI in [1], in [2], in [3], in experiment [5], in experiment [6] and in experiment [7] was more than 10 µM throughout. Moreover, the TGI in [8], in [10], in [11], in experiment [12], in experiment [19] and in [13] was more than 10 µM each time. Besides, the TGI in experiment [14], in [16], in experiment [17] and in experiment [18] was more than 10 µM in each case.
Consider `O=[N+]([O-])c1ccc(C2=NOC(c3ccc(Cl)cc3)N2C23CC4CC(CC(C4)C2)C3)cc1` (stereo not drawn), for which the TGI was more than 100 µM in experiment [1]; more than 100 µM in experiment [2]; more than 100 µM in [3]; more than 100 µM in [4]; more than 100 µM in [5]; 9.89 µM in [6]. The TGI in [7], in experiment [8], in [9], in experiment [10], in experiment [11] and in experiment [12] was more than 100 µM each time. Further, the TGI in experiment [19], in [13], in experiment [14], in experiment [15], in experiment [16] and in experiment [17] was more than 100 µM throughout.
Take `COc1cc(COC(=O)N2CC=CC2C(=O)O)c([N+](=O)[O-])cc1OC` (stereo not drawn): the TGI in [1], in experiment [2], in experiment [4], in experiment [5], in experiment [6] and in experiment [7] was more than 100 µM in each case. Moreover, the TGI in [8], in experiment [9], in [10], in experiment [11], in [12] and in [19] was more than 100 µM throughout. Also, the TGI in [13], in [14], in experiment [15], in experiment [16] and in experiment [18] was more than 100 µM in each case.
